{"source": "patent US4835149A", "about": "“Solubilization of salts of pyridine-2-thiol-1-oxide” (BASF Corporation, priority 1986, dated 1989)", "origin": "cited, not measured here", "key": {"[1]": {"assay": "not given", "remark": "listed apart in the source"}}, "data": [{"compound": "[O-][n+]1ccccc1[S-].[O-][n+]1ccccc1[S-].[Zn+2]", "note": "[zinc salt]", "values": [{"measurement": "solubility of the zinc salt in a composition according to U.S. Pat. No. 3,636,213", "setting": "composition having a pH of about 8", "result": "at least 200 parts per million"}, {"measurement": "solubility in water at pH 8", "setting": "pH of 8", "result": "35 to 50", "unit": "parts per million"}, {"measurement": "solubility in water at pH 7", "setting": "water, pH 7", "result": "10 to 20", "unit": "parts per million"}, {"measurement": "solubility in benzene", "setting": "[1]; benzene", "result": "3-5 p.p.m."}, {"measurement": "solubility in chloroform", "setting": "[1]; chloroform", "result": 3400, "unit": "p.p.m."}, {"measurement": "solubility in dimethyl formamide", "setting": "[1]; dimethyl formamide", "result": 8100, "unit": "p.p.m."}, {"measurement": "solubility in dimethyl sulfoxide", "setting": "[1]; dimethyl sulfoxide", "result": 5.13, "unit": "%"}, {"measurement": "solubility in ethanol", "setting": "[1]; ethanol", "result": 310, "unit": "p.p.m."}, {"measurement": "solubility in petroleum oils, and most common organic solvents", "setting": "[1]; petroleum oils, and most common organic solvents, in words", "result": "substantially insoluble"}, {"measurement": "solubility in water", "setting": "[1]; water", "result": "10-20 p.p.m."}]}]}
